Laboratory results reported in US10610526B2 (priority 2015, dated 2020).

Molecular target: α4β2 nAChRs (Homo sapiens, UniProt P17787+P43681)
Sequence (P43681 29-627 limits assumed): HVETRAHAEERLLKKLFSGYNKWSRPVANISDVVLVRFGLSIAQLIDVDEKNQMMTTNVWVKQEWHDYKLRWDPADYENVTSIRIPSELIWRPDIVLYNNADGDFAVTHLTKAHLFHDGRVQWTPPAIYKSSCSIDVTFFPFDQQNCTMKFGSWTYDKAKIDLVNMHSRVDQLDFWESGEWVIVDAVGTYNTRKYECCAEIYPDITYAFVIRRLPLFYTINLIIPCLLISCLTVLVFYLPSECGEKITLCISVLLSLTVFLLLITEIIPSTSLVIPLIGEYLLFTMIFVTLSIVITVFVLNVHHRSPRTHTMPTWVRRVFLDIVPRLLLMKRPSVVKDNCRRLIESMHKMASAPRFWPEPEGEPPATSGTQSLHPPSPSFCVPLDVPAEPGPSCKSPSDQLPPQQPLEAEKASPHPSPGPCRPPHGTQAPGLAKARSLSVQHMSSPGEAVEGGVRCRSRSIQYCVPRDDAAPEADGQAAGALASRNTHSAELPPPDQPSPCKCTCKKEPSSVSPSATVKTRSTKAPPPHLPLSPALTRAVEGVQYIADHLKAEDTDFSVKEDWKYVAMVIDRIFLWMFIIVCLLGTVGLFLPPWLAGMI
Sequence (P17787 26-502): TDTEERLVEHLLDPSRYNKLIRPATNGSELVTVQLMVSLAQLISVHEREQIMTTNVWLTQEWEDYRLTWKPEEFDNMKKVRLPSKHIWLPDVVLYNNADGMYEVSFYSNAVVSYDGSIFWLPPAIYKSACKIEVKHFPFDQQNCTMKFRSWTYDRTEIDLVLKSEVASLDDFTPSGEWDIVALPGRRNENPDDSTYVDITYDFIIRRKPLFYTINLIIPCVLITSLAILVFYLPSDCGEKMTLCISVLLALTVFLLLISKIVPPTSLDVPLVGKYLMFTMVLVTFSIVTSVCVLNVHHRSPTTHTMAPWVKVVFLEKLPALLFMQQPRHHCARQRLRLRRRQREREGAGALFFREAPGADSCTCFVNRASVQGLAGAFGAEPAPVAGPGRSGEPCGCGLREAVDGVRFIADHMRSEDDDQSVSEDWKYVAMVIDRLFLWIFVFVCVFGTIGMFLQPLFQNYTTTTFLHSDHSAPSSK
Experiment: cell-based
Assay type: cell-based
Conditions: not given
With `CN1CCC[C@H]1c1cccnc1` [Sigma-Aldrich S nicotine, S nicotine] the “Agonist Effect Hillslope” value was −0.84 and the “Antagonist Effect Hillslope” value was 0.94. In the case of `CN1CCC[C@H]1c1cccnc1` [Alchem S nicotine, S nicotine], the “Agonist Effect Hillslope” value is reported as −0.81 and the “Antagonist Effect Hillslope” value is reported as 1.01. In the case of `CN1CCC[C@@H]1c1cccnc1` [Synthetic R nicotine, R nicotine], the “Agonist Effect Hillslope” value is reported as −0.87, the “Antagonist Effect Hillslope” value is reported as 0.67 and the “agonist character at human α4β2 nAChRs” value is reported as “partial agonist”. In the case of `CN1CCCC1c1cccnc1` (stereo not drawn) [Ref. nicotine (Sigma-Aldrich), nicotine], the “Agonist Effect Hillslope” value is reported as −0.80 and the “Antagonist Effect Hillslope” value is reported as 0.85.

Same assay, conditions: read-out: Agonist Effect Emax
Work on `CN1CCC[C@@H]1c1cccnc1` [Synthetic R nicotine, R nicotine] yielded an Emax of 28%.

Molecular target: α7 nAChRs (Homo sapiens, UniProt P36544)
Sequence (P36544 23-502): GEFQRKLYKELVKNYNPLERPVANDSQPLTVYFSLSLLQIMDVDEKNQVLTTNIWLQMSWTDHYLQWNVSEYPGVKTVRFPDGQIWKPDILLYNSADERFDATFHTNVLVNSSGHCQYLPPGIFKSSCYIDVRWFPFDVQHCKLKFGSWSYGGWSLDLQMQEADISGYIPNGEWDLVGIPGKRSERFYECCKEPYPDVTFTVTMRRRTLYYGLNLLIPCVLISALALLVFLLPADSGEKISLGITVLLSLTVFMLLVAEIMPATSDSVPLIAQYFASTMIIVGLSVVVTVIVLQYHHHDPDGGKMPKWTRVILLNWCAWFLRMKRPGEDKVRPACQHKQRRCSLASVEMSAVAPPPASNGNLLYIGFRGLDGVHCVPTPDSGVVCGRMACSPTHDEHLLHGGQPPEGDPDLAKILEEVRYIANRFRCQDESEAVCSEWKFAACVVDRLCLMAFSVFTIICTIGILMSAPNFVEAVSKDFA
Experiment: not given
Assay type: cell-based
Conditions: not given
For `CN1CCC[C@H]1c1cccnc1` [Sigma-Aldrich S nicotine, S nicotine], the “Agonist Effect Hillslope” value was −2.49 and the “Antagonist Effect Hillslope” value was 2.76. For `CN1CCC[C@H]1c1cccnc1` [Alchem S nicotine, S nicotine], the “Agonist Effect Hillslope” value was −3.15 and the “Antagonist Effect Hillslope” value was 3.06. With `CN1CCC[C@@H]1c1cccnc1` [Synthetic R nicotine, R nicotine] the “Agonist Effect Hillslope” value was −2.37, the “Antagonist Effect Hillslope” value was 2.55 and the “agonist character at human α7 nAChRs” value was “full, weak agonist”. For `CN1CCCC1c1cccnc1` (stereo not drawn) [Ref. nicotine (Sigma-Aldrich), nicotine], the “Agonist Effect Hillslope” value was −2.23.

Molecular target: T1, α6/3β2β3 nAChRs (Homo sapiens, UniProt Q15825)
T1 sequence (Q15825 26-239 limits assumed): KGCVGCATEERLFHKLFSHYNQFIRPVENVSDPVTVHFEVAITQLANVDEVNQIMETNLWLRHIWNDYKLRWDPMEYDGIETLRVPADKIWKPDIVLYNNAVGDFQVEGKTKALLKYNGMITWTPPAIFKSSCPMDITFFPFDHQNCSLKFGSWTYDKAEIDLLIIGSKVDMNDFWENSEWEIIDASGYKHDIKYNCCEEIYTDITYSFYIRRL
T1 sequence (P17787 26-238 limits assumed, further chain): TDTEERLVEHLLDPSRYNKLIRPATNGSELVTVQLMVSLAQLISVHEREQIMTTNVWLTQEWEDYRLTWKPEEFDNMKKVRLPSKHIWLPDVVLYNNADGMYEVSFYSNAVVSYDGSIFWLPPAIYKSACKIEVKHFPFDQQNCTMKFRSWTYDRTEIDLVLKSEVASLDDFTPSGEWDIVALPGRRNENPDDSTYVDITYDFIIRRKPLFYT
T1 sequence (Q05901 22-237 limits assumed, further chain): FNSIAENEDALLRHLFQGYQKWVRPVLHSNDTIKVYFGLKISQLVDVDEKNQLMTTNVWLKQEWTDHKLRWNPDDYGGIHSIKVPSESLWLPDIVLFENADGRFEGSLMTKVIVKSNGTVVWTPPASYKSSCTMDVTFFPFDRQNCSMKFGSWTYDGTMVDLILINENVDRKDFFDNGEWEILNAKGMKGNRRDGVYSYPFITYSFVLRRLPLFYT
Experiment: not given
Conditions: not given
For `CN1CCCC1c1cccnc1` (racemic) [Synthetic RS racemic nicotine, RS-Nicotine], the “Agonist Effect Hillslope” value was −0.67 and the “Antagonist Effect Hillslope” value was 1.36. In the case of `CN1CCC[C@H]1c1cccnc1` [Synthetic S nicotine, S nicotine], the “Agonist Effect Hillslope” value is reported as −0.70 and the “Antagonist Effect Hillslope” value is reported as 1.10. In the case of `CN1CCC[C@H]1c1cccnc1` [Sigma-Aldrich S nicotine, S nicotine], the “Agonist Effect Emax” value is reported as 100%, the “Agonist Effect Hillslope” value is reported as −0.69 and the “Antagonist Effect Hillslope” value is reported as 0.96. For `CN1CCC[C@H]1c1cccnc1` [Alchem S nicotine, S nicotine], the “Agonist Effect Emax” value was 95%, the “Agonist Effect Hillslope” value was −0.81 and the “Antagonist Effect Hillslope” value was 0.97. In the case of `CN1CCC[C@@H]1c1cccnc1` [Synthetic R nicotine, R nicotine], the “Agonist Effect Hillslope” value is reported as −0.92, the “Antagonist Effect Hillslope” value is reported as 1.07 and the “agonist character at human α6/3β2β3 nAChRs” value is reported as “full, weak agonist”. With `CN1CCCC1c1cccnc1` (stereo not drawn) [Ref. nicotine (Sigma-Aldrich), nicotine] the “Agonist Effect Hillslope” value was −0.74 and the “Antagonist Effect Hillslope” value was 0.72.

Molecular target: T2, α3β4α5 nAChRs (Homo sapiens, UniProt P30926+P32297)
T2 sequence (P32297 32-505): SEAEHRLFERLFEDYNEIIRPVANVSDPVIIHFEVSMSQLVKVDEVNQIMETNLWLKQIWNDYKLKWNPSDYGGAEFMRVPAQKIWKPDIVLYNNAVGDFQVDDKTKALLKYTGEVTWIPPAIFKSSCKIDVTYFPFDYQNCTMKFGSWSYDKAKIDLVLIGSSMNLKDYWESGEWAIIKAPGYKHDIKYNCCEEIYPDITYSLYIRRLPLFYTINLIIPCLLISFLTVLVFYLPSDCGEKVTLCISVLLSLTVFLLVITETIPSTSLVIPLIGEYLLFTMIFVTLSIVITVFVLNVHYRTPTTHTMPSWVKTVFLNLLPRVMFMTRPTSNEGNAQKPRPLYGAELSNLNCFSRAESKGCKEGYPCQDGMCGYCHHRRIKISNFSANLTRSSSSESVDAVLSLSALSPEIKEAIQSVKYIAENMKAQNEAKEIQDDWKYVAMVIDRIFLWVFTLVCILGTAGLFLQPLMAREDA
T2 sequence (P30926 22-498): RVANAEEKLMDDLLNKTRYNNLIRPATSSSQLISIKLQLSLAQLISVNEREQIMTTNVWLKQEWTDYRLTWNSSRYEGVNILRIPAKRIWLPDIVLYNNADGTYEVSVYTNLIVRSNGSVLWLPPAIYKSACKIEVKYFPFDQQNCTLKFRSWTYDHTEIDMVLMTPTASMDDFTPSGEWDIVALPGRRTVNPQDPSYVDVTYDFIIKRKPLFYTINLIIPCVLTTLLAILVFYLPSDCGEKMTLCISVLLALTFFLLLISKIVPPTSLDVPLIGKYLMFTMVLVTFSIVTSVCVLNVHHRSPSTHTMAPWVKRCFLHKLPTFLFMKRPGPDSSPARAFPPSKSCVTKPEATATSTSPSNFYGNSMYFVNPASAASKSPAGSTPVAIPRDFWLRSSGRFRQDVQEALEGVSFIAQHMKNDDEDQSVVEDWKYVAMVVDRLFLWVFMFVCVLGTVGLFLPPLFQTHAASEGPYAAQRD
T2 sequence (P30532 23-468 partner): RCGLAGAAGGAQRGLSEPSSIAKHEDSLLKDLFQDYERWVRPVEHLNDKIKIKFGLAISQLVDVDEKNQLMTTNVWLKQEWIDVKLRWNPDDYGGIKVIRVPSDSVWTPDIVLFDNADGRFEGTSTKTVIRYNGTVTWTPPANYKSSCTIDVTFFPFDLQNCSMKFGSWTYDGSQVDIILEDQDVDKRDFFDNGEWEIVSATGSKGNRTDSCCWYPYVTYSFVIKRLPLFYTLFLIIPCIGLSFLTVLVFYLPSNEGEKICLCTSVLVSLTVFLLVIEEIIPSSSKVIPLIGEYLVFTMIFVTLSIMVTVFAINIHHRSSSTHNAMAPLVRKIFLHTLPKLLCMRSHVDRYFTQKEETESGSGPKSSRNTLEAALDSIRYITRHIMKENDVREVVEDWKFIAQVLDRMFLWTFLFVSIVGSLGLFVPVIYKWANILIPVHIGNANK
Experiment: not given
Conditions: not given
With `CN1CCCC1c1cccnc1` (racemic) [Synthetic RS racemic nicotine, RS-Nicotine] the “Agonist Effect Hillslope” value was −2.13 and the “Antagonist Effect Hillslope” value was 1.52. For `CN1CCC[C@H]1c1cccnc1` [Synthetic S nicotine, S nicotine], the “Agonist Effect Hillslope” value was −1.48 and the “Antagonist Effect Hillslope” value was 1.11. In the case of `CN1CCC[C@H]1c1cccnc1` [Sigma-Aldrich S nicotine, S nicotine], the “Agonist Effect Emax” value is reported as 84%, the “Agonist Effect Hillslope” value is reported as −1.91 and the “Antagonist Effect Hillslope” value is reported as 1.38. In the case of `CN1CCC[C@H]1c1cccnc1` [Alchem S nicotine, S nicotine], the “Agonist Effect Emax” value is reported as 87%, the “Agonist Effect Hillslope” value is reported as −1.46 and the “Antagonist Effect Hillslope” value is reported as 1.34. With `CN1CCC[C@@H]1c1cccnc1` [Synthetic R nicotine, R nicotine] the “Agonist Effect Hillslope” value was −2.37, the “Antagonist Effect Hillslope” value was 0.95 and the “agonist character at human α3β4α5 nAChRs” value was “partial, weak agonist”. With `CN1CCCC1c1cccnc1` (stereo not drawn) [Ref. nicotine (Sigma-Aldrich), nicotine] the “Agonist Effect Hillslope” value was −1.48 and the “Antagonist Effect Hillslope” value was 1.59.

Molecular target: T1, α6/3β2β3 nAChRs
Experiment: cell-based
Conditions: read-out: Agonist Effect Emax
In the case of `CN1CCCC1c1cccnc1` (racemic) [Synthetic RS racemic nicotine, RS-Nicotine], the Emax is reported as 91%. Work on `CN1CCC[C@H]1c1cccnc1` [Synthetic S nicotine, S nicotine] yielded an Emax of 97%. In the case of `CN1CCC[C@@H]1c1cccnc1` [Synthetic R nicotine, R nicotine], the Emax is reported as 70%. Compound `CN1CCCC1c1cccnc1` (stereo not drawn) [Ref. nicotine (Sigma-Aldrich), nicotine] has an Emax of 100%.

Molecular target: T2, α3β4α5 nAChRs
Experiment: cell-based
Conditions: read-out: Agonist Effect Emax
Compound `CN1CCCC1c1cccnc1` (racemic) [Synthetic RS racemic nicotine, RS-Nicotine] has an Emax of 65%. With `CN1CCC[C@H]1c1cccnc1` [Synthetic S nicotine, S nicotine] the Emax was 96%. With `CN1CCC[C@@H]1c1cccnc1` [Synthetic R nicotine, R nicotine] the Emax was 21%. For `CN1CCCC1c1cccnc1` (stereo not drawn) [Ref. nicotine (Sigma-Aldrich), nicotine], the Emax was 100%.

Test system: not given
Experiment: not given
Conditions: rat, in vivo; cited from earlier work
For `CN1CCCC1c1cccnc1` (stereo not drawn) [synthetic nicotine, nicotine], the carcinogenicity is given as “not carcinogenic”.
